# Tests used:
# Type in all cases: in vivo
# Sagittaria pygmaea, L. = experiment: Preemergence weed control under flooded paddy conditions, SAGPY (Arrowhead (Pygmaea)); settings: preemergence, flooded paddy, rated three to four weeks after treatment; on herbicidal effect rating, SAGPY: meaning of each grade not given here
# [1] = test system: Echinochloa oryzoides (Ard.) Fritsch.; experiment: Preemergence weed control under flooded paddy conditions, ECHORC (Watergrass (Calif.)); settings: preemergence, flooded paddy, rated three to four weeks after treatment; on herbicidal effect rating, ECHORC: meaning of each grade not given here
# Cyperus iria = experiment: Preemergence weed control under flooded paddy conditions, CYPIR (Rice Flatsedge); settings: preemergence, flooded paddy, rated three to four weeks after treatment; on herbicidal effect rating, CYPIR: meaning of each grade not given here
# [2] = test system: Cyperus serotinus, Rottb.; experiment: Preemergence weed control under flooded paddy conditions, CYPSE (Flatsedge); settings: preemergence, rated three to four weeks after treatment; on herbicidal effect rating, CYPSE: meaning of each grade not given here
# [3] = test system: Monochoria vaginalis, Presl.; experiment: Preemergence weed control under flooded paddy conditions, MOOVA (Monochoria); settings: preemergence, flooded paddy, rated three to four weeks after treatment; on herbicidal effect rating, MOOVA: meaning of each grade not given here
compound,measurement,setting,value
"Cn1c(C(F)(F)F)cc(=O)n(-c2ccc3snc(COS(C)(=O)=O)c3c2)c1=O [Example 363, 2,4(1H,3H)-Pyrimidinedione, 3-[3-(hydroxymethyl)-1,2-benzisothiazol-5-yl]-1-methyl-6-(trifluoromethyl)-, methanesulfonate (ester)]","herbicidal effect rating, SAGPY","Sagittaria pygmaea, L.; Rate 0.0320 kg/ha",3.0
same,"herbicidal effect rating, SAGPY","Sagittaria pygmaea, L.; Rate 0.0620 kg/ha",5.0
same,"herbicidal effect rating, SAGPY","Sagittaria pygmaea, L.; Rate 0.1250 kg/ha",7.0
same,"herbicidal effect rating, SAGPY","Sagittaria pygmaea, L.; Rate 0.2500 kg/ha",9.0
same,"herbicidal effect rating, SAGPY","Sagittaria pygmaea, L.; Rate 0.5000 kg/ha",9.0
same,"herbicidal effect rating, ECHORC",[1]; Rate 0.0320 kg/ha,3.0
same,"herbicidal effect rating, ECHORC",[1]; Rate 0.0620 kg/ha,4.0
same,"herbicidal effect rating, ECHORC",[1]; Rate 0.1250 kg/ha,5.0
same,"herbicidal effect rating, ECHORC",[1]; Rate 0.2500 kg/ha,6.0
same,"herbicidal effect rating, ECHORC",[1]; Rate 0.5000 kg/ha,7.0
same,"herbicidal effect rating, CYPIR",Cyperus iria; Rate 0.0320 kg/ha,6.0
same,"herbicidal effect rating, CYPIR",Cyperus iria; Rate 0.0620 kg/ha,7.0
same,"herbicidal effect rating, CYPIR",Cyperus iria; Rate 0.1250 kg/ha,7.0
same,"herbicidal effect rating, CYPIR",Cyperus iria; Rate 0.2500 kg/ha,7.0
same,"herbicidal effect rating, CYPIR",Cyperus iria; Rate 0.5000 kg/ha,8.0
same,"herbicidal effect rating, CYPSE",[2]; Rate 0.0320 kg/ha,0.0
same,"herbicidal effect rating, CYPSE",[2]; Rate 0.0620 kg/ha,0.0
same,"herbicidal effect rating, CYPSE",[2]; Rate 0.1250 kg/ha,5.0
same,"herbicidal effect rating, CYPSE",[2]; Rate 0.2500 kg/ha,7.0
same,"herbicidal effect rating, CYPSE",[2]; Rate 0.5000 kg/ha,7.0
same,"herbicidal effect rating, MOOVA",[3]; Rate 0.0320 kg/ha,9.0
same,"herbicidal effect rating, MOOVA",[3]; Rate 0.0620 kg/ha,9.0
same,"herbicidal effect rating, MOOVA",[3]; Rate 0.1250 kg/ha,9.0
same,"herbicidal effect rating, MOOVA",[3]; Rate 0.2500 kg/ha,9.0
same,"herbicidal effect rating, MOOVA",[3]; Rate 0.5000 kg/ha,9.0
"Cn1c(C(F)(F)F)cc(=O)n(-c2ccc3snc(COC(=O)c4ccc([N+](=O)[O-])o4)c3c2)c1=O [Example 476, 2,4(1H,3H)-Pyrimidinedione, 3-[3-(hydroxymethyl)-1,2-benzisothiazol-5-yl]-1-methyl-6-(trifluoromethyl)-, 5-nitro-2-furoate (ester)]",SAGPY herbicidal rating,"Sagittaria pygmaea, L.; 0.0320 kg/ha",0.0
same,SAGPY herbicidal rating,"Sagittaria pygmaea, L.; 0.0620 kg/ha",2.0
same,SAGPY herbicidal rating,"Sagittaria pygmaea, L.; 0.1250 kg/ha",4.0
same,SAGPY herbicidal rating,"Sagittaria pygmaea, L.; 0.2500 kg/ha",5.0
same,ECHORC herbicidal rating,[1]; 0.0320 kg/ha,0.0
same,ECHORC herbicidal rating,[1]; 0.0620 kg/ha,2.0
same,ECHORC herbicidal rating,[1]; 0.1250 kg/ha,2.0
same,ECHORC herbicidal rating,[1]; 0.2500 kg/ha,3.0
same,CYPIR herbicidal rating,Cyperus iria; 0.0320 kg/ha,4.0
same,CYPIR herbicidal rating,Cyperus iria; 0.0620 kg/ha,4.0
same,CYPIR herbicidal rating,Cyperus iria; 0.1250 kg/ha,9.0
same,CYPIR herbicidal rating,Cyperus iria; 0.2500 kg/ha,9.0
same,CYPSE herbicidal rating,[2]; 0.0320 kg/ha,0.0
same,CYPSE herbicidal rating,[2]; 0.1250 kg/ha,3.0
same,CYPSE herbicidal rating,[2]; 0.2500 kg/ha,6.0
same,MOOVA herbicidal rating,[3]; 0.0320 kg/ha,5.0
same,MOOVA herbicidal rating,[3]; 0.0620 kg/ha,6.0
same,MOOVA herbicidal rating,[3]; 0.1250 kg/ha,6.0
same,MOOVA herbicidal rating,[3]; 0.2500 kg/ha,9.0
"CC(=O)OCc1nsc2ccc(-n3c(=O)cc(C(F)(F)F)n(C)c3=O)cc12 [Example 32, 3-[3-(Hydroxymethyl)-1,2-benzisothiazol-5-yl]-1-methyl-6-(trifluoromethyl)-2,4(1H,3H)-pyrimidinedione, acetate ester]","herbicidal effect rating, SAGPY","Sagittaria pygmaea, L.; 0.0313 kg/ha",0.0
same,"herbicidal effect rating, SAGPY","Sagittaria pygmaea, L.; 0.0625 kg/ha",0.0
same,"herbicidal effect rating, SAGPY","Sagittaria pygmaea, L.; 0.1250 kg/ha",2.0
same,"herbicidal effect rating, SAGPY","Sagittaria pygmaea, L.; 0.2500 kg/ha",9.0
same,"herbicidal effect rating, ECHORC",[1]; 0.0313 kg/ha,2.0
same,"herbicidal effect rating, ECHORC",[1]; 0.0625 kg/ha,3.5
same,"herbicidal effect rating, ECHORC",[1]; 0.1250 kg/ha,4.5
same,"herbicidal effect rating, ECHORC",[1]; 0.2500 kg/ha,7.5
same,"herbicidal effect rating, CYPIR",Cyperus iria; 0.0313 kg/ha,4.0
same,"herbicidal effect rating, CYPIR",Cyperus iria; 0.0625 kg/ha,6.0
same,"herbicidal effect rating, CYPIR",Cyperus iria; 0.1250 kg/ha,8.0
same,"herbicidal effect rating, CYPIR",Cyperus iria; 0.2500 kg/ha,9.0
same,"herbicidal effect rating, CYPSE",[2]; 0.0313 kg/ha,0.0
same,"herbicidal effect rating, CYPSE",[2]; 0.0625 kg/ha,0.0
same,"herbicidal effect rating, CYPSE",[2]; 0.1250 kg/ha,2.0
same,"herbicidal effect rating, CYPSE",[2]; 0.2500 kg/ha,7.0
same,"herbicidal effect rating, MOOVA",[3]; 0.0313 kg/ha,8.0
same,"herbicidal effect rating, MOOVA",[3]; 0.0625 kg/ha,9.0
same,"herbicidal effect rating, MOOVA",[3]; 0.1250 kg/ha,9.0
same,"herbicidal effect rating, MOOVA",[3]; 0.2500 kg/ha,9.0
"COC(=O)COc1cc(C)c(I)cc1-c1nsc2ccc(-n3c(=O)cc(C(F)(F)F)n(C)c3=O)cc12 [Example 469, Acetic acid, {{6-{5-[3,6-dihydro-3-methyl-2,6-dioxo-4-(trifluoromethyl)-1(2H)-pyrimidinyl]-1,2-benzisothiazol-3-yl}-4-iodo-m-tolyl}oxy}-, methyl ester]",SAGPY herbicidal rating,"Sagittaria pygmaea, L.; 0.0320 kg/ha",0.0
same,SAGPY herbicidal rating,"Sagittaria pygmaea, L.; 0.0620 kg/ha",1.5
same,SAGPY herbicidal rating,"Sagittaria pygmaea, L.; 0.1250 kg/ha",2.5
same,SAGPY herbicidal rating,"Sagittaria pygmaea, L.; 0.2500 kg/ha",3.0
same,ECHORC herbicidal rating,[1]; 0.0320 kg/ha,7.0
same,ECHORC herbicidal rating,[1]; 0.0620 kg/ha,9.0
same,ECHORC herbicidal rating,[1]; 0.1250 kg/ha,9.0
same,ECHORC herbicidal rating,[1]; 0.2500 kg/ha,9.0
same,CYPIR herbicidal rating,Cyperus iria; 0.0320 kg/ha,0.0
same,CYPIR herbicidal rating,Cyperus iria; 0.0620 kg/ha,1.5
same,CYPIR herbicidal rating,Cyperus iria; 0.1250 kg/ha,6.5
same,CYPIR herbicidal rating,Cyperus iria; 0.2500 kg/ha,7.0
same,CYPSE herbicidal rating,[2]; 0.0320 kg/ha,0.0
same,CYPSE herbicidal rating,[2]; 0.0620 kg/ha,4.5
same,CYPSE herbicidal rating,[2]; 0.1250 kg/ha,9.0
same,CYPSE herbicidal rating,[2]; 0.2500 kg/ha,6.0
same,MOOVA herbicidal rating,[3]; 0.0320 kg/ha,2.0
same,MOOVA herbicidal rating,[3]; 0.0620 kg/ha,4.5
same,MOOVA herbicidal rating,[3]; 0.1250 kg/ha,5.0
same,MOOVA herbicidal rating,[3]; 0.2500 kg/ha,8.0

# — patent EP0908457B1, “3-(1,2-benzisothiazol- and isoxazol-5-Y1)-2,4(1H,3H)-pyrimidinedione or thione and 3-(1,2-benzisothiazol- and isoxazol-5-y1)-4(3H)-pyrimidinone or thione herbicidal agents” (BASF AKTIENGESELLSCHAFT, priority 1997, dated 1999)
